Data reported in US9018206B2, “Carboxamide compounds and their use as calpain inhibitors” (AbbVie Deutschland GmbH & Co. KG, priority 2009, dated 2015).
pKi: −log10 of the molar value.

How the values were obtained:
[1] = biological target: T1, recombinant human cathepsin S (Homo sapiens, UniProt P25774); experiment: Cathepsin S enzyme inhibition in vitro (kinetic fluorescence assay); type: biochemical; conditions: Ki(cathepsin S)/Ki(calpain) ratio
T1 construct: purchased Calbiochem 219343; host or cells: E. coli
T1 sequence (P25774 115-331): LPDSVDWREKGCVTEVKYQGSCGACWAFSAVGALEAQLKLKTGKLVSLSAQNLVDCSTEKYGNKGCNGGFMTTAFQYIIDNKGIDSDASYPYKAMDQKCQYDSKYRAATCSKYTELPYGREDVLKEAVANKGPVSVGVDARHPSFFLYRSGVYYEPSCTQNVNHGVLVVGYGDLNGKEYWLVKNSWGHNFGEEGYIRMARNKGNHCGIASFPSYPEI
In short: (§1)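 Kinetic AMC fluorescence (ex 390/em 460 nm), room temperature. Calpain-I 20 nM, 100 μM Suc-Leu-Tyr-AMC, imidazole/CaCl2 pH 7.3; cathepsins B 0.25 nM/100 μM Z-Phe-Arg-AMC, K 3 nM/10 μM Z-Gly-Pro-Arg-AMC, S 0.5 nM/20 μM Z-Val-Val-Arg-AMC, each MES/EDTA/cysteine pH 6.0. Ki from IC50 via Cheng-Prusoff, averaging 2–4 curves.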

[2] = Assay for determining cytosolic clearance, human liver cytosol; type: in vitro ADME; conditions: 0.5 μM compound, 1 mg/ml human liver cytosol, 37° C., pH 7.5
Experimental: (§2) For comparison purposes data measured with human liver cytosol were contrasted with those obtained with cynomolgus monkey liver cytosol.
(§3) 0.5 μM of a compound to be tested was incubated with 1 mg/ml of human liver cytosol as well as monkey liver cytosol at 37° C. in 0.5 M of phosphate buffer at pH 7.5 while shaking (commercial sources: female cynomolgus liver cytosol from Tebu bio, human liver cytosol from BDgentest).
(§4) In each case aliquots of 65 μl were taken after 0, 5, 10 and 15 min and transferred into wells of a wellplate which were immediately filled with 130 μl of ethanol to stop the reaction. The samples were kept frozen until analysis on a LC/MS/MS system (Applied Biosystems SCIEX 4000).
(§5) Read out parameters were the loss of parent compounds, from which the half life periods (T1/2) were calculated from.
(§6) To assess the stability of the compounds tested the clearance ranges were adjusted to the hepatic plasma flow of the different species according to the following scheme:
(§7) stable=from 0 to about ⅓ of the hepatic plasma flow;
(§8) moderately stable=from about ⅓ to about ⅔ of the hepatic plasma flow;
(§9) instable=more than ⅔ of the hepatic plasma flow.
(§10) Based on this adjustment the following qualifiers were assigned to evaluate the cytosolic stabilities of the compounds tested: […]

[3] = biological target: T2, calpain-I isolated from human erythrocytes (Homo sapiens, UniProt P07384); experiment: Calpain I enzyme inhibition in vitro (kinetic fluorescence assay); type: biochemical; conditions: apparent Ki from IC50 (Cheng-Prussoff); 20 nM calpain-I, 100 μM Suc-Leu-Tyr-AMC, pH 7.3, room temperature
T2 construct: calpain-I—isolated from human erythrocytes; purchased Calbiochem 208713; host or cells: human erythrocytes (tissue-derived)
T2 sequence (P07384 1-714): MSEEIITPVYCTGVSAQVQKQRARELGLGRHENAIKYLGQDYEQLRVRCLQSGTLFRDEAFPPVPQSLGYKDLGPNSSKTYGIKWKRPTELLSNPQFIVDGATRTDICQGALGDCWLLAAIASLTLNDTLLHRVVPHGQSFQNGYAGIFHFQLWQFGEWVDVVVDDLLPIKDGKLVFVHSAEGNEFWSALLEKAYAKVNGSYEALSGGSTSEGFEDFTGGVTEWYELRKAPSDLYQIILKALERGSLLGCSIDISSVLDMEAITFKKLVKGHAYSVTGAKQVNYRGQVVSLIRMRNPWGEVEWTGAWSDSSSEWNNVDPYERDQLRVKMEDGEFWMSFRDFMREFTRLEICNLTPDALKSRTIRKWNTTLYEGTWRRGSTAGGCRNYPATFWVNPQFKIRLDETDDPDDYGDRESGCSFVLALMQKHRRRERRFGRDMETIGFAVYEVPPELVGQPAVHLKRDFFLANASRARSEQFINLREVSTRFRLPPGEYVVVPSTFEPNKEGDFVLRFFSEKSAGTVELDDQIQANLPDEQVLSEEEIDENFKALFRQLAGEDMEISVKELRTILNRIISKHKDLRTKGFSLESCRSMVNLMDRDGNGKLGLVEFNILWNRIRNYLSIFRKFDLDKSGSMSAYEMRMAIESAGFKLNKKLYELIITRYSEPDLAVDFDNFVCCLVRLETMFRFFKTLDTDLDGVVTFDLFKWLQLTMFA
T2 sequence (P04632 1-268 partner): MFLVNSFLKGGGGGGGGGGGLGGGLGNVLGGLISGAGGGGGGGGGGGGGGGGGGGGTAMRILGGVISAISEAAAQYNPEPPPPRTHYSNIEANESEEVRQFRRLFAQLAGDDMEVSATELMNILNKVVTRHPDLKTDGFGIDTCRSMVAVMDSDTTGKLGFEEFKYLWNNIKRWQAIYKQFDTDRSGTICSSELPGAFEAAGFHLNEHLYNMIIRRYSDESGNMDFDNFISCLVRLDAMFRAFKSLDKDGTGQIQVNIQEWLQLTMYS
In short: as §1

[4] = Assay for determining cytosolic clearance, cynomolgus monkey liver cytosol; type: in vitro ADME; conditions: 0.5 μM compound, 1 mg/ml cynomolgus monkey liver cytosol, 37° C., pH 7.5
Experimental: as §2, §3, §4, §5, §6, §7, §8, §9, §10

[5] = biological target: T3, cathepsin B isolated from human liver (Homo sapiens, UniProt P07858); experiment: Cathepsin B enzyme inhibition in vitro (kinetic fluorescence assay); type: biochemical; conditions: Ki(cathepsin B)/Ki(calpain) ratio
T3 construct: cathepsin B—isolated from human liver; purchased Calbiochem 219362; host or cells: human liver (tissue-derived)
In short: as §1

[6] = biological target: T4, cathepsin K activated from recombinant human procathepsin K (Homo sapiens, UniProt P43235); experiment: Cathepsin K enzyme inhibition in vitro (kinetic fluorescence assay); type: biochemical; conditions: Ki(cathepsin K)/Ki(calpain) ratio
T4 construct: purchased Calbiochem 342001; host or cells: E. coli
T4 sequence (P43235 115-329): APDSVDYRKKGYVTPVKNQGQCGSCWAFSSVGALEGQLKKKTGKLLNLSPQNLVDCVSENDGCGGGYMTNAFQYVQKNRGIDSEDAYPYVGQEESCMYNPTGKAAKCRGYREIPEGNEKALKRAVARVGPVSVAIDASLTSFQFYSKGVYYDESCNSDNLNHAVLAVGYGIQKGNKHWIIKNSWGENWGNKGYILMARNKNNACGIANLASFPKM
In short: as §1

[7] = biological target: T5, cathepsin L isolated from human liver (Homo sapiens, UniProt P07711); experiment: Cathepsin L enzyme inhibition in vitro (kinetic fluorescence assay); type: biochemical; conditions: Ki(cathepsin L)/Ki(calpain) ratio
T5 construct: cathepsin L—isolated from human liver; purchased Calbiochem 219402; host or cells: human liver (tissue-derived)
T5 sequence (P07711 114-333): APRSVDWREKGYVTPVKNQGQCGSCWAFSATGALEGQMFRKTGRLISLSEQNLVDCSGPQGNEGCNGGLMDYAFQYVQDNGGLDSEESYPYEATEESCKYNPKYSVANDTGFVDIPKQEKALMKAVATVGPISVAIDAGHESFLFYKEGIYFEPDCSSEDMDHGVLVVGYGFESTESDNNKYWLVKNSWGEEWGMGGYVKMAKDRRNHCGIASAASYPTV
In short: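 Inhibition of cathepsin L isolated from human liver was measured by kinetic fluorescence (excitation 390 nm, emission 460 nm) using 1 nM enzyme and 2 μM Z-Phe-Arg-AMC substrate (Km 2 μM) in 50 mM MES, 2 mM EDTA, 0.05% Brij 35, 2.5 mM L-cysteine, pH 6.0, at room temperature. Apparent Ki values came from IC50 values via the Cheng-Prussoff relation, averaged over 2 to 4 dose-effect plots.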

Sel cat. S [1] | human cytCL [2] | pKi [3] | cyno cytCL [4] | Structure (SMILES) | Sel cat. B [5] | Sel cat. K [6] | Sel cat. L [7]
++ (30<Ki(cathepsin B)/Ki(calpain)≦100) | ++ (0-14 μl/min/mg) | 6.22 to 7.00 | ++ (0-18 μl/min/mg) | CC(C)CNC(=O)C(=O)C(Cc1ccccc1)NC(=O)[C@H]1CCC(=O)N1Cc1ccccc1 (mixture of isomers) [Example 28, (2R)-1-Benzyl-N-(4-(isobutylamino)-3,4-dioxo-1-phenylbutan-2-yl)-5-oxopyrrolidine-2-carboxamide] | +++ (Ki(cathepsin B)/Ki(calpain) ratio of >30) | +++ (Ki(cathepsin K)/Ki(calpain) ratio of >30) | +++ (Ki(cathepsin L)/Ki(calpain) ratio of >30)
 | ++ (0-14 μl/min/mg) |  | ++ (0-18 μl/min/mg) | CCNC(=O)C(=O)C(Cc1ccccc1)NC(=O)[C@H]1CCC(=O)N1Cc1c(OC)cccc1C(F)(F)F (mixture of isomers) [Example 42, (2R)—N-(4-(Ethylamino)-3,4-dioxo-1-phenylbutan-2-yl)-1-(2-methoxy-6-(trifluoromethyl)benzyl)-5-oxopyrrolidine-2-carboxamide] | ++ (10<Ki(cathepsin B)/Ki(calpain)≦30) | ++ (10<Ki(cathepsin B)/Ki(calpain)≦30) | ++ (10<Ki(cathepsin B)/Ki(calpain)≦30)
++ (30<Ki(cathepsin B)/Ki(calpain)≦100) | ++ (0-14 μl/min/mg) | 6.22 to 7.00 | ++ (0-18 μl/min/mg) | COc1cccc(C(F)(F)F)c1CN1C(=O)CC[C@@H]1C(=O)NC(Cc1ccccc1)C(=O)C(=O)NCc1ccccn1 (mixture of isomers) [Example 43, (2R)—N-(3,4-Dioxo-1-phenyl-4-(pyridin-2-ylmethylamino)butan-2-yl)-1-(2-methoxy-6-(trifluoromethyl)benzyl)-5-oxopyrrolidine-2-carboxamide] | +++ (Ki(cathepsin B)/Ki(calpain) ratio of >30) | +++ (Ki(cathepsin K)/Ki(calpain) ratio of >30) | +++ (Ki(cathepsin L)/Ki(calpain) ratio of >30)

The remaining lines, values behind:

Structure (SMILES) | Sel cat. S [1] | human cytCL [2] | pKi [3] | cyno cytCL [4] | Sel cat. B [5] | Sel cat. K [6] | Sel cat. L [7]
COc1cccc(C(F)(F)F)c1CN1C(=O)CC[C@@H]1C(=O)NC(Cc1ccccc1)C(=O)C(N)=O (stereo partly drawn) [Example 50, (2R)—N-(4-Amino-3,4-dioxo-1-phenylbutan-2-yl)-5-oxo-1-[2-methoxy-6-(trifluoromethyl)benzyl]pyrrolidine-2-carboxamide] | +++ (Ki(cathepsin S)/Ki(calpain) ratio of >100) | + (14-70 μl/min/mg) | > 7.30 | + (18-90 μl/min/mg) | +++ (Ki(cathepsin B)/Ki(calpain) ratio of >30) | +++ (Ki(cathepsin K)/Ki(calpain) ratio of >30) | +++ (Ki(cathepsin L)/Ki(calpain) ratio of >30)
CNC(=O)C(=O)C(Cc1ccccc1)NC(=O)[C@H]1CCC(=O)N1Cc1ccccc1 (mixture of isomers) [Example 25, (2R)-1-Benzyl-N-(4-(methylamino)-3,4-dioxo-1-phenylbutan-2-yl)-5-oxopyrrolidine-2-carboxamide] | ++ (30<Ki(cathepsin B)/Ki(calpain)≦100) | ++ (0-14 μl/min/mg) | 6.22 to 7.00 | ++ (0-18 μl/min/mg) | +++ (Ki(cathepsin B)/Ki(calpain) ratio of >30) | +++ (Ki(cathepsin K)/Ki(calpain) ratio of >30) | +++ (Ki(cathepsin L)/Ki(calpain) ratio of >30)
CCNC(=O)C(=O)C(Cc1ccccc1)NC(=O)[C@H]1CCC(=O)N1Cc1ccccc1 (stereo partly drawn) [Example 21, (2R)-1-Benzyl-N-[4-(ethylamino)-3,4-dioxo-1-phenylbutan-2-yl]-5-oxopyrrolidine-2-carboxamide] | ++ (30<Ki(cathepsin B)/Ki(calpain)≦100) | ++ (0-14 μl/min/mg) | 6.22 to 7.00 | ++ (0-18 μl/min/mg) | +++ (Ki(cathepsin B)/Ki(calpain) ratio of >30) | +++ (Ki(cathepsin K)/Ki(calpain) ratio of >30) | +++ (Ki(cathepsin L)/Ki(calpain) ratio of >30)
O=C(NC1CC1)C(=O)C(Cc1ccccc1)NC(=O)[C@H]1CCC(=O)N1Cc1ccccc1 (mixture of isomers) [Example 27, (2R)-1-Benzyl-N-(4-(cyclopropylamino)-3,4-dioxo-1-phenylbutan-2-yl)-5-oxopyrrolidine-2-carboxamide] | ++ (30<Ki(cathepsin B)/Ki(calpain)≦100) | ++ (0-14 μl/min/mg) | 6.22 to 7.00 | ++ (0-18 μl/min/mg) | +++ (Ki(cathepsin B)/Ki(calpain) ratio of >30) | +++ (Ki(cathepsin K)/Ki(calpain) ratio of >30) | +++ (Ki(cathepsin L)/Ki(calpain) ratio of >30)
O=C(NCc1ccccn1)C(=O)C(Cc1ccccc1)NC(=O)[C@H]1CCC(=O)N1Cc1ccccc1 (stereo partly drawn) [Example 20, (2R)-1-Benzyl-N-{3,4-dioxo-1-phenyl-4-[(pyridin-2-ylmethyl)amino]butan-2-yl}-5-oxopyrrolidine-2-carboxamide] | +++ (Ki(cathepsin S)/Ki(calpain) ratio of >100) | ++ (0-14 μl/min/mg) | 7.00 to 7.30 | ++ (0-18 μl/min/mg) | +++ (Ki(cathepsin B)/Ki(calpain) ratio of >30) | +++ (Ki(cathepsin K)/Ki(calpain) ratio of >30) | ++ (10<Ki(cathepsin B)/Ki(calpain)≦30)
O=C(NCc1ccc(C(F)(F)F)cc1)C(=O)C(Cc1ccccc1)NC(=O)[C@H]1CCC(=O)N1Cc1ccccc1 (mixture of isomers) [Example 68, (2R)-1-Benzyl-N-(3,4-dioxo-1-phenyl-4-(4-(trifluoromethyl)benzylamino)butan-2-yl)-5-oxopyrrolidine-2-carboxamide] | +++ (Ki(cathepsin S)/Ki(calpain) ratio of >100) |  | 6.22 to 7.00 | ++ (0-18 μl/min/mg) | +++ (Ki(cathepsin B)/Ki(calpain) ratio of >30) | +++ (Ki(cathepsin K)/Ki(calpain) ratio of >30) | ++ (10<Ki(cathepsin B)/Ki(calpain)≦30)
